Measurements reported in US20120121591A1 (priority 2009, published 2012).
Positions of bridges follow the written chain, without caps; N, C: chain ends. Residues, ends and D or L forms follow the SMILES beside them.

Legend:
Format in all cases: cell-based
[1] = tested on: IL-2 secretion from T cells in human whole blood; conditions: read-out: WB (IL-2) IC50 (nM, Avg)
[2] = tested on: IFN-g secretion from T cells in human whole blood; conditions: read-out: WB (IFNg) IC50 (nM, Avg)
[3] = target: hKv1.3 (Homo sapiens, UniProt P22001); assay: cell-based; conditions: Kv1.3 (IWQ) IC50 (nM, Avg)
Chain of hKv1.3 (P22001 whole entry): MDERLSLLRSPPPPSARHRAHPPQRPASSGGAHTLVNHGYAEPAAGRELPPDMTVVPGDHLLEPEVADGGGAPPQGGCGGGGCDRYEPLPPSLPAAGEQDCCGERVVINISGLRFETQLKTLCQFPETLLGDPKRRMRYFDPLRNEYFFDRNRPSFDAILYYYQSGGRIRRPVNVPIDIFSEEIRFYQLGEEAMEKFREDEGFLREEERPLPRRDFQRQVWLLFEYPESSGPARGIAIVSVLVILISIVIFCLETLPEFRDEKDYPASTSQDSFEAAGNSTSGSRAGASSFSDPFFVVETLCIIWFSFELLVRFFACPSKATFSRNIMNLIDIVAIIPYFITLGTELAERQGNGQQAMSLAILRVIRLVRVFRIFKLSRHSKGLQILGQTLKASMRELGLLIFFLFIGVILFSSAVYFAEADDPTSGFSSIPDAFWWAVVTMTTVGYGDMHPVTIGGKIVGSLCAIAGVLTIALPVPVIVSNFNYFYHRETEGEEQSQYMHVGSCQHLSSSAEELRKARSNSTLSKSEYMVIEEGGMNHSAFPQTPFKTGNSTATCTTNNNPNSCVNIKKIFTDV

## CC[C@H](C)[C@@H]1NC(=O)[C@H](CC(=O)O)NC(=O)[C@H]([C@@H](C)O)NC(=O)[C@@H]2CSSC[C@@H]3NC(=O)[C@H](CC(C)C)NC(=O)[C@H](CC(N)=O)NC(=O)[C@H](CC(C)C)NC(=O)[C@H](CCCNC(=N)N)NC(=O)[C@H](Cc4ccc(O)cc4)NC(=O)[C@H](CCCCN)NC(=O)[C@H](CCSC)NC(=O)[C@H](CO)NC(=O)[C@H]([C@@H](C)O)NC(=O)[C@H](CCCNC(=N)N)NC(=O)[C@H](CSSC[C@H](NC(=O)[C@H]([C@@H](C)O)NC(=O)[C@H](CCCCN)NC(=O)[C@H](CCCNC(=N)N)NC3=O)C(=O)NCC(=O)N[C@@H](CO)C(=O)N[C@H](C(=O)O)CSSC[C@H](NC(=O)[C@@H](NC(=O)[C@@H](N)CCCNC(=N)N)[C@@H](C)O)C(=O)N[C@@H](CCCCN)C(=O)N[C@@H](CC(=O)O)C(=O)N[C@@H](CC(C)C)C(=O)N[C@@H]([C@@H](C)CC)C(=O)N3CCC[C@H]3C(=O)N[C@@H](C(C)C)C(=O)N[C@@H](CO)C(=O)N[C@@H](CCC(=O)O)C(=O)N2)NC(=O)[C@H](CCCNC(=N)N)NC1=O [HmK, reference compound] (H-RTCKDLIPVSECTDIRCRTSMKYRLNLCRKTCGSC-OH; disulfide 3-35, 12-28, 17-32)
[1]
  IC50: 0.85 nM
[2]
  IC50: 1.2 nM
[3]
  IC50: 0.9 nM

## CC[C@H](C)[C@@H]1NC(=O)[C@@H](NC(=O)[C@H](CO)NC(=O)[C@@H](N)CCCNC(=N)N)CSSC[C@@H](C(=O)O)NC(=O)[C@H]([C@@H](C)O)NC(=O)CNC(=O)[C@@H]2CSSC[C@@H]3NC(=O)[C@H](CCC(N)=O)NC(=O)[C@H](Cc4ccccc4)NC(=O)[C@H](C)NC(=O)[C@H]([C@@H](C)O)NC(=O)[C@H](CSSC[C@H](NC(=O)[C@H](Cc4ccccc4)NC(=O)[C@H](CO)NC(=O)[C@H](CC(C)C)NC(=O)[C@H](CCCNC(=N)N)NC(=O)[C@H](C)NC(=O)[C@H](CCCCN)NC(=O)[C@H](CCSC)NC(=O)[C@H](CO)NC(=O)[C@H](Cc4c[nH]cn4)NC(=O)[C@H](CCCCN)NC3=O)C(=O)N[C@@H](CCCNC(=N)N)C(=O)N[C@@H](CCCCN)C(=O)N[C@@H]([C@@H](C)O)C(=O)N2)NC(=O)[C@H](CCCNC(=N)N)NC(=O)[C@H](CO)NC(=O)[C@H](CCCCN)NC(=O)[C@@H]2CCCN2C(=O)[C@H]([C@@H](C)CC)NC(=O)[C@H]([C@@H](C)O)NC(=O)[C@H](CC(=O)O)NC1=O [Tyr23(A)]
[1]
  IC50: 3.75 nM
[2]
  IC50: 5.44 nM
[3]
  IC50: 0.621 nM

## CC[C@H](C)[C@@H]1NC(=O)[C@@H](NC(=O)[C@H](CO)NC(=O)[C@@H](N)Cc2cccc3ccccc23)CSSC[C@@H](C(=O)O)NC(=O)[C@H]([C@@H](C)O)NC(=O)CNC(=O)[C@@H]2CSSC[C@@H]3NC(=O)[C@H](CCC(N)=O)NC(=O)[C@H](Cc4ccccc4)NC(=O)[C@H](C)NC(=O)[C@H]([C@@H](C)O)NC(=O)[C@H](CSSC[C@H](NC(=O)[C@H](Cc4ccccc4)NC(=O)[C@H](CO)NC(=O)[C@H](CC(C)C)NC(=O)[C@H](CCCNC(=N)N)NC(=O)[C@H](Cc4ccc(O)cc4)NC(=O)[C@H](CCCCN)NC(=O)[C@H](CCSC)NC(=O)[C@H](CO)NC(=O)[C@H](Cc4c[nH]cn4)NC(=O)[C@H](CCCCN)NC3=O)C(=O)N[C@@H](CCCNC(=N)N)C(=O)N[C@@H](CCCCN)C(=O)N[C@@H]([C@@H](C)O)C(=O)N2)NC(=O)[C@H](CCCNC(=N)N)NC(=O)[C@H](CO)NC(=O)[C@H](CCCCN)NC(=O)[C@@H]2CCCN2C(=O)[C@H]([C@@H](C)CC)NC(=O)[C@H]([C@@H](C)O)NC(=O)[C@H](CC(=O)O)NC1=O [[1-Nal1]ShK]
[1]
  IC50: 0.222 nM
[2]
  IC50: 0.247 nM
[3]
  IC50: 0.225 nM

## CC[C@H](C)[C@@H]1NC(=O)[C@@H](NC(=O)[C@H](Cc2cccc3ccccc23)NC(=O)[C@@H](N)CCCNC(=N)N)CSSC[C@@H](C(=O)O)NC(=O)[C@H]([C@@H](C)O)NC(=O)CNC(=O)[C@@H]2CSSC[C@@H]3NC(=O)[C@H](CCC(N)=O)NC(=O)[C@H](Cc4ccccc4)NC(=O)[C@H](C)NC(=O)[C@H]([C@@H](C)O)NC(=O)[C@H](CSSC[C@H](NC(=O)[C@H](Cc4ccccc4)NC(=O)[C@H](CO)NC(=O)[C@H](CC(C)C)NC(=O)[C@H](CCCNC(=N)N)NC(=O)[C@H](Cc4ccc(O)cc4)NC(=O)[C@H](CCCCN)NC(=O)[C@H](CCSC)NC(=O)[C@H](CO)NC(=O)[C@H](Cc4c[nH]cn4)NC(=O)[C@H](CCCCN)NC3=O)C(=O)N[C@@H](CCCNC(=N)N)C(=O)N[C@@H](CCCCN)C(=O)N[C@@H]([C@@H](C)O)C(=O)N2)NC(=O)[C@H](CCCNC(=N)N)NC(=O)[C@H](CO)NC(=O)[C@H](CCCCN)NC(=O)[C@@H]2CCCN2C(=O)[C@H]([C@@H](C)CC)NC(=O)[C@H]([C@@H](C)O)NC(=O)[C@H](CC(=O)O)NC1=O [[1-Nal2]ShK]
[1]
  IC50: 0.223 nM
[2]
  IC50: 0.258 nM
[3]
  IC50: 0.25 nM

## CC[C@H](C)[C@@H]1NC(=O)[C@H]([C@@H](C)O)NC(=O)[C@H](CC(=O)O)NC(=O)[C@H](Cc2cccc3ccccc23)NC(=O)[C@@H](NC(=O)[C@H](CO)NC(=O)[C@@H](N)CCCNC(=N)N)CSSC[C@@H](C(=O)O)NC(=O)[C@H]([C@@H](C)O)NC(=O)CNC(=O)[C@@H]2CSSC[C@@H]3NC(=O)[C@H](CCC(N)=O)NC(=O)[C@H](Cc4ccccc4)NC(=O)[C@H](C)NC(=O)[C@H]([C@@H](C)O)NC(=O)[C@H](CSSC[C@H](NC(=O)[C@H](Cc4ccccc4)NC(=O)[C@H](CO)NC(=O)[C@H](CC(C)C)NC(=O)[C@H](CCCNC(=N)N)NC(=O)[C@H](Cc4ccc(O)cc4)NC(=O)[C@H](CCCCN)NC(=O)[C@H](CCSC)NC(=O)[C@H](CO)NC(=O)[C@H](Cc4c[nH]cn4)NC(=O)[C@H](CCCCN)NC3=O)C(=O)N[C@@H](CCCNC(=N)N)C(=O)N[C@@H](CCCCN)C(=O)N[C@@H]([C@@H](C)O)C(=O)N2)NC(=O)[C@H](CCCNC(=N)N)NC(=O)[C@H](CO)NC(=O)[C@H](CCCCN)NC(=O)[C@@H]2CCCN2C1=O [[1-Nal4]ShK]
[1]
  IC50: 0.274 nM
[2]
  IC50: 0.317 nM
[3]
  IC50: 0.15 nM

## CC[C@H](C)[C@@H]1NC(=O)[C@@H](NC(=O)[C@H](CO)NC(=O)[C@@H](N)CCCNC(=N)N)CSSC[C@@H](C(=O)O)NC(=O)[C@H]([C@@H](C)O)NC(=O)CNC(=O)[C@@H]2CSSC[C@@H]3NC(=O)[C@H](CCC(N)=O)NC(=O)[C@H](Cc4ccccc4)NC(=O)[C@H](C)NC(=O)[C@H]([C@@H](C)O)NC(=O)[C@H](CSSC[C@H](NC(=O)[C@H](Cc4ccccc4)NC(=O)[C@H](CO)NC(=O)[C@H](CC(C)C)NC(=O)[C@H](CCCNC(=N)N)NC(=O)[C@H](Cc4ccc(O)cc4)NC(=O)[C@H](CCCCN)NC(=O)[C@H](CCSC)NC(=O)[C@H](CO)NC(=O)[C@H](Cc4c[nH]cn4)NC(=O)[C@H](CCCCN)NC3=O)C(=O)N[C@@H](CCCNC(=N)N)C(=O)N[C@@H](CCCCN)C(=O)N[C@@H]([C@@H](C)O)C(=O)N2)NC(=O)[C@H](CCCNC(=N)N)NC(=O)[C@H](CO)NC(=O)[C@H](CCCCN)NC(=O)[C@@H]2CCCN2C(=O)[C@H]([C@@H](C)CC)NC(=O)[C@H]([C@@H](C)O)NC(=O)[C@H](Cc2cccc3ccccc23)NC1=O [[1-Nal5]ShK]
[1]
  IC50: 70.4 nM
[2]
  IC50: 31.9 nM
[3]
  IC50: 3.3 nM

## CC[C@H](C)[C@@H]1NC(=O)[C@@H](NC(=O)[C@H](CO)NC(=O)[C@@H](N)CCCNC(=N)N)CSSC[C@@H](C(=O)O)NC(=O)[C@H]([C@@H](C)O)NC(=O)CNC(=O)[C@@H]2CSSC[C@@H]3NC(=O)[C@H](CCC(N)=O)NC(=O)[C@H](Cc4ccccc4)NC(=O)[C@H](C)NC(=O)[C@H]([C@@H](C)O)NC(=O)[C@H](CSSC[C@H](NC(=O)[C@H](Cc4ccccc4)NC(=O)[C@H](CO)NC(=O)[C@H](CC(C)C)NC(=O)[C@H](CCCNC(=N)N)NC(=O)[C@H](Cc4ccc(O)cc4)NC(=O)[C@H](CCCCN)NC(=O)[C@H](CCSC)NC(=O)[C@H](CO)NC(=O)[C@H](Cc4c[nH]cn4)NC(=O)[C@H](CCCCN)NC3=O)C(=O)N[C@@H](CCCNC(=N)N)C(=O)N[C@@H](CCCCN)C(=O)N[C@@H]([C@@H](C)O)C(=O)N2)NC(=O)[C@H](CCCNC(=N)N)NC(=O)[C@H](CO)NC(=O)[C@H](CCCCN)NC(=O)[C@@H]2CCCN2C(=O)[C@H]([C@@H](C)CC)NC(=O)[C@H](Cc2cccc3ccccc23)NC(=O)[C@H](CC(=O)O)NC1=O [[1-Nal6]ShK]
[1]
  IC50: 0.86 nM
[2]
  IC50: 0.962 nM
[3]
  IC50: 0.15 nM

## CC[C@H](C)[C@@H]1NC(=O)[C@@H](NC(=O)[C@H](CO)NC(=O)[C@@H](N)CCCNC(=N)N)CSSC[C@@H](C(=O)O)NC(=O)[C@H]([C@@H](C)O)NC(=O)CNC(=O)[C@@H]2CSSC[C@@H]3NC(=O)[C@H](CCC(N)=O)NC(=O)[C@H](Cc4ccccc4)NC(=O)[C@H](C)NC(=O)[C@H]([C@@H](C)O)NC(=O)[C@H](CSSC[C@H](NC(=O)[C@H](Cc4ccccc4)NC(=O)[C@H](CO)NC(=O)[C@H](CC(C)C)NC(=O)[C@H](CCCNC(=N)N)NC(=O)[C@H](Cc4ccc(O)cc4)NC(=O)[C@H](CCCCN)NC(=O)[C@H](CCSC)NC(=O)[C@H](CO)NC(=O)[C@H](Cc4c[nH]cn4)NC(=O)[C@H](CCCCN)NC3=O)C(=O)N[C@@H](CCCNC(=N)N)C(=O)N[C@@H](CCCCN)C(=O)N[C@@H]([C@@H](C)O)C(=O)N2)NC(=O)[C@H](CCCNC(=N)N)NC(=O)[C@H](CO)NC(=O)[C@H](CCCCN)NC(=O)[C@@H]2CCCN2C(=O)[C@H](Cc2cccc3ccccc23)NC(=O)[C@H]([C@@H](C)O)NC(=O)[C@H](CC(=O)O)NC1=O [[1-Nal7]ShK]
[1]
  IC50: 11.6 nM
[2]
  IC50: 18 nM
[3]
  IC50: 0.699 nM
